Read-outs that look alike come from different tables or passages of the source.
Legend:
[1] = Water solubility determination (UPLC of supernatant); assay type: physicochemical
Experimental: Each sample was centrifuged at 16,000 g for 30 min. Subsequently, the supernatant of each sample was filtered, and the concentration of the compound in the supernatant as a water-soluble component was estimated by UPLC analysis.

[2] = DPPH free-radical scavenging assay
Experimental: DPPH free-radical scavenging capability and ferric reducing antioxidant power (FRAP) assay results were evaluated as described previously by Moon et al.. Hydroxy radical-scavenging assay was measured as described by Su et al.. Vitamin C was used as a positive control. Each assay was measured from 1 min to 30 h. The DPPH radical-scavenging activity was calculated as follows: DPPH radical-scavenging activity (%) = (1-Asample/Ablank) × 100, where Asample is the absorbance in the presence of the sample, and Ablank is the absorbance of the blank. Hydroxy radical-scavenging activity was calculated in accordance with the following formula: Hydroxy radical scavenging activity (%) = (Asample-Acontrol)/(Ablank-Acontrol) × 100, where Asample is the absorbance in the presence of the sample, Acontrol is the absorbance of the blank with H2O2, and Ablank is the absorbance of the blank without H2O2.

[3] = tested on: B16F10 melanoma cells; assay type: cell-based; details: mouse, 24 h
Experimental: Cell culture and cell viability assay. B16F10 melanoma cells were maintained in DMEM supplemented with 10% FBS, 100 U/ml penicillin, and 100 μg/ml streptomycin. The cells were cultured at 37°C under 5% CO2 in a humidified culture chamber. Cell viability was determined by 3-(4,5-dimethythiazol-2-yl)-2,5-diphenyl tetrazolium bromide (MTT) assay. The cells (6 × 10^3 cells/well) were seeded into 96-well plates and cultured for 24 h. […] After 24 h, the cells were washed with PBS, MTT reagent (0.5 mg/ml) was added to each well, and the cells were incubated at 37°C for 1 h. The supernatant in each well was discarded for the treatment with DMSO, which was used to dissolve the formazan crystals formed from viable cells. After the DMSO treatment, the absorbance of each well was measured at 595 nm using a microplate reader (Epoch, Biotek, USA).

[4] = tested on: polyphenol oxidases; details: cited from earlier work
[5] = Hydroxyl radical scavenging assay
[6] = biological target: T1, tyrosinase (Mus musculus, UniProt P11344); assay: Cellular tyrosinase activity in α-MSH-stimulated B16F10 melanoma cells; assay type: cell-based; details: 48 h; for inhibition at 300 µM: B16-F10
T1 construct: endogenous in cells; host or cells: B16F10 melanoma cells, α-MSH-stimulated
T1 sequence (P11344 19-533): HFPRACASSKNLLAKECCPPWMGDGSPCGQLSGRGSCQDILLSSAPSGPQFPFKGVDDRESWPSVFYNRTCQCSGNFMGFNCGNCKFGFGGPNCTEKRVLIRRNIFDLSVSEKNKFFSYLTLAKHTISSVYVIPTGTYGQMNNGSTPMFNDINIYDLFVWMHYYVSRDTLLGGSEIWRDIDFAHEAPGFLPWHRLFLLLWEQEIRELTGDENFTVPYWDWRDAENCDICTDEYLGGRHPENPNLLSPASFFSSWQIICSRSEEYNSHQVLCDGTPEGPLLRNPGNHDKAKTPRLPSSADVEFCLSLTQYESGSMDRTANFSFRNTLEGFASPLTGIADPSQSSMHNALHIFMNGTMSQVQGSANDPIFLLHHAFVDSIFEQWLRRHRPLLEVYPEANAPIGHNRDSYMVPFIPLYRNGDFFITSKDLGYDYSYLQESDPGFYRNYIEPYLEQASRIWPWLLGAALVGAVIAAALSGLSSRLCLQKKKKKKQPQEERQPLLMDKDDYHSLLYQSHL

[7] = tested on: B16F10 cells; assay: Cellular uptake assay (UPLC of medium and cell lysates); assay type: cell-based; details: after 24 h incubation with B16F10 cells; resveratrol 20 μM, glucosides 100 μM
Experimental: The cellular uptake assay was conducted following the method described by Moon et al. with minor modification. The B16F10 cells (2 × 10^5 cells/well) were seeded into 6-well plates. […] After 24 h of incubation, the medium was removed, and the cells were washed with PBS and then scraped off. […] The lysate was centrifuged at 16,000 g for 10 min and filtered by a 0.2 μm syringe filter. The cell extracts were analyzed by UPLC.

[8] = Stability against oxidative degradation in buffer solutions and cell culture medium; assay type: physicochemical; details: 37°C, up to 72 h, read-out: Half-life, t1/2 (converted)
[9] = humans; cited from earlier work
[10] = parameters: method as in PMID 9599270; details: read-out: Antioxidant activity IC50; cited from earlier work
[11] = tested on: tyrosinase; parameters: method as in PMID 7765966; details: tyrosinase of B16 mouse melanoma; cited from earlier work
[12] = tested on: B16F10 melanoma cells; assay: Cellular melanin content in α-MSH-stimulated B16F10 melanoma cells; assay type: cell-based; details: 72 h
Experimental: Cellular melanin content was determined by the method of Park et al. with minor modifications. The cells (5 × 10^4 cells/well) were seeded into 6-well plates and cultured for 24 h. […] Then, the cells were washed with PBS and lysed with lysis buffer, and the supernatant was removed by centrifugation at 16,000 g for 15 min at 4°C. The protein concentration of the supernatant was determined by the Bradford method. The pellet was dissolved in 1 M NaOH and measured at 405 nm using a microplate reader.

[13] = distilled water, sonicated 1 h at room temperature
[14] = Buffer pH 2.0 (hydrochloric acid)
[15] = DMEM cell culture medium without FBS, DMEM (without FBS)
[16] = phosphate-buffered saline, PBS (pH 7.4)
[17] = simulated body fluid, SBF (pH 7.4)
[18] = 100 μM, α-MSH-stimulated B16F10

OC[C@H]1O[C@H](Oc2ccc(C=Cc3cc(O)cc(O)c3)cc2)[C@H](O)[C@@H](O)[C@@H]1O [R1, resveratrol-4′-O-α-glucoside]
Water solubility [1, 13]: 515 µg/mL | Water solubility (molar) [1, 13]: 1319 µM

O=C1O[C@H]([C@@H](O)CO)C(O)=C1O [vitamin C]
Time to scavenge the DPPH radical [2]: ≤ 30 min

Oc1ccc(/C=C/c2cc(O)cc(O)c2)cc1 [resveratrol, trans-3,5,4′-trihydroxystilbene]
Effect on growth of B16F10 cells [3]: inhibited the growth of B16F10 cells in a dose-dependent manner | EC50 ([2]; at 30 min): 523 µM | EC50 ([2]; at 5 h): 118 µM | Half-life (t1/2) in the reaction of polyphenol oxidases compared with piceid [4]: three times shorter | Water solubility [1, 13]: 36 µg/mL | solubility at 1 h ([1]; distilled water, sonicated 1 h at room temperature, read-out: Water solubility (molar)): 157.7 µM | EC50 ([5]; at 30 min): 138 µM | Suppression of tyrosinase activity ([6]; 20 μM, compared with cells treated with MSH alone): 70.5% | Amount remaining in the extracellular medium [7]: 59 % of the initial amount | half-life at 10 mM [8, 14]: > 72 h | half-life at 10 mM ([8]; Buffer pH 9.0 (Tris-HCl)): 1.5 h | half-life at 10 mM [8, 15]: > 72 h | half-life at 10 mM [8, 16]: 28 h | half-life at 10 mM [8, 17]: 44 h | Oral bioavailability [9]: less than 1%

OC[C@H]1O[C@H](Oc2cc(O)cc(C=Cc3ccc(O)cc3)c2)[C@H](O)[C@@H](O)[C@@H]1O [R2, resveratrol-3-O-α-glucoside]
Water solubility [1]: 471 µg/mL | Water solubility (molar) [1]: 1206 µM

OC[C@H]1O[C@@H](Oc2ccc(/C=C/c3cc(O)cc(O)c3)cc2)[C@H](O)[C@@H](O)[C@@H]1O [resveratrol-4′-O-β-glucoside]
IC50 [10]: 1000 µM

OC[C@H]1O[C@H](Oc2ccc(O)cc2)[C@H](O)[C@@H](O)[C@@H]1O [α-arbutin]
Inhibitory activity, times as strong as that of β-arbutin [11]: 10 times

OC[C@H]1O[C@@H](Oc2ccc(O)cc2)[C@H](O)[C@@H](O)[C@@H]1O [arbutin]
Suppression of melanin synthesis ([12]; 100 μM): 51.2% | Suppression of melanin synthesis ([12]; 300 μM): 74.5% | Suppression of tyrosinase activity [6, 18]: 15.8% | inhibition at 300 µM ([6]; α-MSH-stimulated B16F10): 25.6%

OC[C@H]1O[C@@H](Oc2cc(O)cc(/C=C/c3ccc(O)cc3)c2)[C@H](O)[C@@H](O)[C@@H]1O [β-piceid]
Concentration affecting proliferation of B16F10 cells [3]: above 100 μM | EC50 ([2]; at 30 min): 441 µM | EC50 ([2]; at 5 h): 699 µM | IC50 [10]: 198 µM | solubility at 1 h ([1]; thermodynamic from solid, distilled water, sonicated 1 h at room temperature, read-out: Water solubility): 137 µg/mL | solubility at 1 h ([1]; thermodynamic from solid, distilled water, sonicated 1 h at room temperature, read-out: Water solubility (molar)): 351 µM | Suppression of melanin synthesis ([12]; 100 μM): 36.5% | Suppression of melanin synthesis ([12]; 300 μM): 46.3% | EC50 ([5]; at 30 min): 215 µM | EC50 ([5]; at 5 h): 53.7 µM | Suppression of tyrosinase activity [6, 18]: 19.2% | inhibition at 300 µM ([6]; α-MSH-stimulated B16F10): 29.7% | half-life at 10 mM [8, 14]: > 72 h | half-life at 10 mM ([8]; Buffer pH 9.0 (Tris-HCl)): > 72 h | half-life at 10 mM [8, 15]: > 72 h | half-life at 10 mM [8, 16]: > 72 h | half-life at 10 mM [8, 17]: > 72 h
